By viability, T/C is commonly meant the ratio of treated to control.

Here are results for 3 compounds from PubChem BioAssay AID1963831 (Molecular Pharmacology Branch, DTP, NCI, 2024).
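Note: spheroids exposed to compounds for seven days; 100% = DMSO vehicle control viability.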

For the first assay, the system named is 889142-216-R-J1-PDC complex spheroid viability. Briefly: Anticancer human tumor 889142-216-R-J1-PDC patient-derived bladder carcinoma cell line growth inhibition [POLQ]. To be noted: second compound 0.0316 µM; first compound 3.16 µM; active compounds read low. Put shortly: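 PDC + HUVEC + MSC complex spheroids; POLQ inhibitors ± partner drugs; top conc. at/near clinical Cmax, else 10 microM (SN-38 1 microM), half-log dilutions; 37 degrees C, 5% CO2.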
On to `O=C(Nc1ccc(O)c(NS(=O)(=O)c2ccc(F)cc2)c1)c1ccc(-c2ccccc2)cc1` + COC1C(OC(N)=O)C(O)C(Oc2ccc3c(O)c(NC(=O)c4ccc(O)c(CC=C(C)C)c4)c(=O)oc3c2C)OC1(C)C, for which the viability, T/C was 116%.

In the case of `COc1cc(C2c3cc4c(cc3C(OC3OC5COC(C)OC5C(O)C3O)C3COC(=O)C23)OCO4)cc(OC)c1O` (configuration not stated) + Cc1cccc(N(C)C(=O)C2C(O)CCN2c2nc(C)cc(C(F)(F)F)c2C#N)c1, the viability, T/C was 65.1%.

The same assay, now with this note: second compound 0.0316 µM; first compound 10 µM; active compounds read low.
In the case of `CC1COCCN1c1cc(C2(O)CC3CCC(C2)O3)c2cnn(-c3ccn[nH]3)c2n1` (configuration not stated) + COC1C(OC(N)=O)C(O)C(Oc2ccc3c(O)c(NC(=O)c4ccc(O)c(CC=C(C)C)c4)c(=O)oc3c2C)OC1(C)C, the viability, T/C is 14.7%.

`O=C(Nc1ccc(O)c(NS(=O)(=O)c2ccc(F)cc2)c1)c1ccc(-c2ccccc2)cc1` + COC1C(OC(N)=O)C(O)C(Oc2ccc3c(O)c(NC(=O)c4ccc(O)c(CC=C(C)C)c4)c(=O)oc3c2C)OC1(C)C: the viability, T/C is 67.2%.

In the case of `COc1cc(C2c3cc4c(cc3C(OC3OC5COC(C)OC5C(O)C3O)C3COC(=O)C23)OCO4)cc(OC)c1O` (configuration not stated) + Cc1cccc(N(C)C(=O)C2C(O)CCN2c2nc(C)cc(C(F)(F)F)c2C#N)c1, the viability, T/C is 66%.

Staying with this assay, now noted: second compound 0.1 µM; first compound 0.0316 µM; active compounds read low.
For `CC1COCCN1c1cc(C2(O)CC3CCC(C2)O3)c2cnn(-c3ccn[nH]3)c2n1` (configuration not stated) + COC1C(OC(N)=O)C(O)C(Oc2ccc3c(O)c(NC(=O)c4ccc(O)c(CC=C(C)C)c4)c(=O)oc3c2C)OC1(C)C, the viability, T/C was 69.9%.

`O=C(Nc1ccc(O)c(NS(=O)(=O)c2ccc(F)cc2)c1)c1ccc(-c2ccccc2)cc1` + COC1C(OC(N)=O)C(O)C(Oc2ccc3c(O)c(NC(=O)c4ccc(O)c(CC=C(C)C)c4)c(=O)oc3c2C)OC1(C)C: the viability, T/C is 93.9%.

As for `COc1cc(C2c3cc4c(cc3C(OC3OC5COC(C)OC5C(O)C3O)C3COC(=O)C23)OCO4)cc(OC)c1O` (configuration not stated) + Cc1cccc(N(C)C(=O)C2C(O)CCN2c2nc(C)cc(C(F)(F)F)c2C#N)c1, the viability, T/C is 82.6%.

The same assay, now with this note: second compound 0.1 µM; first compound 0.1 µM; active compounds read low.
Turning to `CC1COCCN1c1cc(C2(O)CC3CCC(C2)O3)c2cnn(-c3ccn[nH]3)c2n1` (configuration not stated) + COC1C(OC(N)=O)C(O)C(Oc2ccc3c(O)c(NC(=O)c4ccc(O)c(CC=C(C)C)c4)c(=O)oc3c2C)OC1(C)C, the viability, T/C is 50.2%.

On to `O=C(Nc1ccc(O)c(NS(=O)(=O)c2ccc(F)cc2)c1)c1ccc(-c2ccccc2)cc1` + COC1C(OC(N)=O)C(O)C(Oc2ccc3c(O)c(NC(=O)c4ccc(O)c(CC=C(C)C)c4)c(=O)oc3c2C)OC1(C)C, for which the viability, T/C was 90.7%.

Consider `COc1cc(C2c3cc4c(cc3C(OC3OC5COC(C)OC5C(O)C3O)C3COC(=O)C23)OCO4)cc(OC)c1O` (configuration not stated) + Cc1cccc(N(C)C(=O)C2C(O)CCN2c2nc(C)cc(C(F)(F)F)c2C#N)c1, for which the viability, T/C is 85.2%.

The assay is the same for the next values; noted with them: second compound 0.1 µM; first compound 0.316 µM; active compounds read low.
With `CC1COCCN1c1cc(C2(O)CC3CCC(C2)O3)c2cnn(-c3ccn[nH]3)c2n1` (configuration not stated) + COC1C(OC(N)=O)C(O)C(Oc2ccc3c(O)c(NC(=O)c4ccc(O)c(CC=C(C)C)c4)c(=O)oc3c2C)OC1(C)C, the viability, T/C is 38.6%.

Take `O=C(Nc1ccc(O)c(NS(=O)(=O)c2ccc(F)cc2)c1)c1ccc(-c2ccccc2)cc1` + COC1C(OC(N)=O)C(O)C(Oc2ccc3c(O)c(NC(=O)c4ccc(O)c(CC=C(C)C)c4)c(=O)oc3c2C)OC1(C)C: the viability, T/C was 92.6%.

Take `COc1cc(C2c3cc4c(cc3C(OC3OC5COC(C)OC5C(O)C3O)C3COC(=O)C23)OCO4)cc(OC)c1O` (configuration not stated) + Cc1cccc(N(C)C(=O)C2C(O)CCN2c2nc(C)cc(C(F)(F)F)c2C#N)c1: the viability, T/C is 70.9%.

The assay is the same for the next values; noted with them: second compound 0.1 µM; first compound 1 µM; active compounds read low.
As for `CC1COCCN1c1cc(C2(O)CC3CCC(C2)O3)c2cnn(-c3ccn[nH]3)c2n1` (configuration not stated) + COC1C(OC(N)=O)C(O)C(Oc2ccc3c(O)c(NC(=O)c4ccc(O)c(CC=C(C)C)c4)c(=O)oc3c2C)OC1(C)C, the viability, T/C is 32.5%.

Regarding `O=C(Nc1ccc(O)c(NS(=O)(=O)c2ccc(F)cc2)c1)c1ccc(-c2ccccc2)cc1` + COC1C(OC(N)=O)C(O)C(Oc2ccc3c(O)c(NC(=O)c4ccc(O)c(CC=C(C)C)c4)c(=O)oc3c2C)OC1(C)C, the viability, T/C was 108%.

In the case of `COc1cc(C2c3cc4c(cc3C(OC3OC5COC(C)OC5C(O)C3O)C3COC(=O)C23)OCO4)cc(OC)c1O` (configuration not stated) + Cc1cccc(N(C)C(=O)C2C(O)CCN2c2nc(C)cc(C(F)(F)F)c2C#N)c1, the viability, T/C was 56.4%.

The assay is the same for the next values; noted with them: second compound 0.1 µM; first compound 3.16 µM; active compounds read low.
Regarding `CC1COCCN1c1cc(C2(O)CC3CCC(C2)O3)c2cnn(-c3ccn[nH]3)c2n1` (configuration not stated) + COC1C(OC(N)=O)C(O)C(Oc2ccc3c(O)c(NC(=O)c4ccc(O)c(CC=C(C)C)c4)c(=O)oc3c2C)OC1(C)C, the viability, T/C was 27.5%.

Regarding `O=C(Nc1ccc(O)c(NS(=O)(=O)c2ccc(F)cc2)c1)c1ccc(-c2ccccc2)cc1` + COC1C(OC(N)=O)C(O)C(Oc2ccc3c(O)c(NC(=O)c4ccc(O)c(CC=C(C)C)c4)c(=O)oc3c2C)OC1(C)C, the viability, T/C is 111%.

For `COc1cc(C2c3cc4c(cc3C(OC3OC5COC(C)OC5C(O)C3O)C3COC(=O)C23)OCO4)cc(OC)c1O` (configuration not stated) + Cc1cccc(N(C)C(=O)C2C(O)CCN2c2nc(C)cc(C(F)(F)F)c2C#N)c1, the viability, T/C is 68.5%.

The assay is the same for the next values; noted with them: second compound 0.1 µM; first compound 10 µM; active compounds read low.
For `CC1COCCN1c1cc(C2(O)CC3CCC(C2)O3)c2cnn(-c3ccn[nH]3)c2n1` (configuration not stated) + COC1C(OC(N)=O)C(O)C(Oc2ccc3c(O)c(NC(=O)c4ccc(O)c(CC=C(C)C)c4)c(=O)oc3c2C)OC1(C)C, the viability, T/C was 15.2%.

`O=C(Nc1ccc(O)c(NS(=O)(=O)c2ccc(F)cc2)c1)c1ccc(-c2ccccc2)cc1` + COC1C(OC(N)=O)C(O)C(Oc2ccc3c(O)c(NC(=O)c4ccc(O)c(CC=C(C)C)c4)c(=O)oc3c2C)OC1(C)C: the viability, T/C is 64.7%.

Consider `COc1cc(C2c3cc4c(cc3C(OC3OC5COC(C)OC5C(O)C3O)C3COC(=O)C23)OCO4)cc(OC)c1O` (configuration not stated) + Cc1cccc(N(C)C(=O)C2C(O)CCN2c2nc(C)cc(C(F)(F)F)c2C#N)c1, for which the viability, T/C is 57.6%.

The assay is the same for the next values; noted with them: second compound 0.316 µM; first compound 0.0316 µM; active compounds read low.
Take `CC1COCCN1c1cc(C2(O)CC3CCC(C2)O3)c2cnn(-c3ccn[nH]3)c2n1` (configuration not stated) + COC1C(OC(N)=O)C(O)C(Oc2ccc3c(O)c(NC(=O)c4ccc(O)c(CC=C(C)C)c4)c(=O)oc3c2C)OC1(C)C: the viability, T/C is 66.4%.

As to `O=C(Nc1ccc(O)c(NS(=O)(=O)c2ccc(F)cc2)c1)c1ccc(-c2ccccc2)cc1` + COC1C(OC(N)=O)C(O)C(Oc2ccc3c(O)c(NC(=O)c4ccc(O)c(CC=C(C)C)c4)c(=O)oc3c2C)OC1(C)C, the viability, T/C was 128%.

With `COc1cc(C2c3cc4c(cc3C(OC3OC5COC(C)OC5C(O)C3O)C3COC(=O)C23)OCO4)cc(OC)c1O` (configuration not stated) + Cc1cccc(N(C)C(=O)C2C(O)CCN2c2nc(C)cc(C(F)(F)F)c2C#N)c1, the viability, T/C is 93.1%.

Still in this assay, the particulars now being: second compound 0.316 µM; first compound 0.1 µM; active compounds read low.
With `CC1COCCN1c1cc(C2(O)CC3CCC(C2)O3)c2cnn(-c3ccn[nH]3)c2n1` (configuration not stated) + COC1C(OC(N)=O)C(O)C(Oc2ccc3c(O)c(NC(=O)c4ccc(O)c(CC=C(C)C)c4)c(=O)oc3c2C)OC1(C)C, the viability, T/C is 53.6%.

On to `O=C(Nc1ccc(O)c(NS(=O)(=O)c2ccc(F)cc2)c1)c1ccc(-c2ccccc2)cc1` + COC1C(OC(N)=O)C(O)C(Oc2ccc3c(O)c(NC(=O)c4ccc(O)c(CC=C(C)C)c4)c(=O)oc3c2C)OC1(C)C, for which the viability, T/C is 110%.

In the case of `COc1cc(C2c3cc4c(cc3C(OC3OC5COC(C)OC5C(O)C3O)C3COC(=O)C23)OCO4)cc(OC)c1O` (configuration not stated) + Cc1cccc(N(C)C(=O)C2C(O)CCN2c2nc(C)cc(C(F)(F)F)c2C#N)c1, the viability, T/C is 86.9%.

Still in this assay, the particulars now being: second compound 0.316 µM; first compound 0.316 µM; active compounds read low.
On to `CC1COCCN1c1cc(C2(O)CC3CCC(C2)O3)c2cnn(-c3ccn[nH]3)c2n1` (configuration not stated) + COC1C(OC(N)=O)C(O)C(Oc2ccc3c(O)c(NC(=O)c4ccc(O)c(CC=C(C)C)c4)c(=O)oc3c2C)OC1(C)C, for which the viability, T/C was 40.2%.

Take `O=C(Nc1ccc(O)c(NS(=O)(=O)c2ccc(F)cc2)c1)c1ccc(-c2ccccc2)cc1` + COC1C(OC(N)=O)C(O)C(Oc2ccc3c(O)c(NC(=O)c4ccc(O)c(CC=C(C)C)c4)c(=O)oc3c2C)OC1(C)C: the viability, T/C is 99.9%.

For `COc1cc(C2c3cc4c(cc3C(OC3OC5COC(C)OC5C(O)C3O)C3COC(=O)C23)OCO4)cc(OC)c1O` (configuration not stated) + Cc1cccc(N(C)C(=O)C2C(O)CCN2c2nc(C)cc(C(F)(F)F)c2C#N)c1, the viability, T/C is 59.4%.
